Like-named read-outs stand apart in the source and are kept apart here.
Key:
apoptotic proteins = assay: Levels of apoptotic proteins in presence of Chk2 inhibitor; type: cell-based, human; settings: with cabozantinib and CBD; FIG. 7B
Description: (§1) Next, to determine whether Chk2 activated by combined treatment with cabozantinib and CBD affects apoptosis, the anti-apoptotic effect mediated by Chk2 inhibitors was confirmed.

HepG2 cells [1] = assay: Apoptotic effect of combined treatment in presence of Chk2 inhibitor; type: cell-based, human; settings: with cabozantinib and CBD; FIG. 7A
Description: as §1

p53 [2] = assay: Phosphorylation of p53 in presence of Chk2 inhibitor; type: cell-based, human; settings: with cabozantinib and CBD; FIG. 7B
Description: as §1

HepG2 cells [3] = assay: Combined treatment effect of cabozantinib with cannabis-related compounds (cell viability); type: cell-based; settings: Homo sapiens, read-out: IC50 with Cabozantinib
Description: (§2) Cells (1.0×10^4) were seeded in 96-well plates and cultured in a medium for 24 hours. The cultured cells were treated with various concentrations of CBD and/or cabozantinib, etc., for 48 hours, and then cell viability was measured using a WST-8 assay kit (Biomax, SEOUL, Korea).
(§3) Specifically, HepG2 cells, a hepatoma cell line, were seeded at a concentration of 1×10^4 cells/well in a 96-well plate and cultured for 24 hours in an incubator at 37° C. and 10% CO2, then they were treated with cabozantinib at various concentrations and treated or not with cannabidiol (20 μM), and then cultured under the same conditions for 48 hours. After completion of the culture, 1/10 of the WST-8 solution (Quanti-Max™, BIOMAX, Korea) was added to the medium, and the culture was further conducted at 37° C. for 1 hour, the absorbance was measured at 450 nm to determine the cell viability, which was expressed as a ratio to the untreated control group. This experiment was conducted independently and repeated three times. Additionally, as positive control groups, sorafenib, lenvatinib, or regorafenib were treated instead of cabozantinib, respectively.

HepG2 cells [4] = assay: Cell viability (WST-8) of anticancer agents with or without CBD; type: cell-based, human; settings: for IC50: Homo sapiens, HepG2, 48 h
Description: Human HCC cell lines (HepG2 and Hep3B) were purchased from the American Type Culture Collection (ATCC). The cell lines were cultured in MEM (Gibco, Carlsbad, MD, USA) and DMEM (Gibco) supplemented with 10% FBS (Gibco), 100 U/mL penicillin, and 100 µg/mL streptomycin, respectively.
as §2, §3

tyrosine kinase c-Met = settings: known; cited from earlier work
VEGFR2 = settings: known; cited from earlier work
pCDH-CNR1 HepG2 cells = assay: Cell viability in CNR1 overexpressing HepG2 cells with or without CBD; type: cell-based; settings: Homo sapiens
Description: as §2
(§4) Total RNA was extracted from normal liver tissues and cDNA was synthesized to clone a tagged CNR1 and CNR2 coding gene sequences into a pCDH-CMV-EF1-puro vector. The CNR1 and CNR2 genes were amplified by PCR using specific primers including 5′-extension and NotI (NEB, Ipswich, MA, USA) and XbaI (NEB) restriction sites. CloneAmp HiFi PCR Premix ([…], San Jose, CA, USA) was used for PCR reactions. Subsequently, amplicons were obtained from the PCR products by gel extraction, digested with NotI and XbaI enzymes, and cloned into the pCDH-CMV-EF1-puro vector using the In-Fusion® cloning system according to the manufacturer's instructions.
(§5) HepG2 cells were transfected with pCDH-CMV-EF1-puro including the tagged CNR1 and CNR2 coding sequences together with gag-pol and VSV-G plasmids (plasmids 14887 and 8454, respectively; Addgene, Cambridge, MA, USA). […] To confirm the specificity and efficiency of CNR1 and CNR2 overexpression, mRNA expression levels were analyzed using RT-PCR. […]

pCDH-Ctrl HepG2 cells = assay: Cell viability in control vector (pCDH-Ctrl) HepG2 cells with or without CBD; type: cell-based; settings: Homo sapiens
Description: as §2, §4, §5

pCDH-CNR2 HepG2 cells = assay: Cell viability in CNR2 overexpressing HepG2 cells with or without CBD; type: cell-based; settings: Homo sapiens
Description: as §2, §4, §5

HepG2 cells [5] = assay: Inhibition of apoptosis by L-ascorbic acid; type: cell-based, human; settings: ER stress induced by cabozantinib and CBD; FIG. 11
Description: (§6) Next, the effect of L-ascorbic acid (LAA), known to alleviate ER stress, on the inhibition of P53 activation and apoptosis was investigated. As a result, it was confirmed that p53 activation and apoptosis caused by ER stress induced by combined treatment with cabozantinib and CBD were suppressed when LAA was treated (FIG. 11).

p53 [6] = assay: Inhibition of P53 activation by L-ascorbic acid; type: cell-based, human; settings: ER stress induced by cabozantinib and CBD; FIG. 11
Description: as §6

[7] = HepG2, 48 h, combined with cabozantinib
[8] = with 20 μM CBD, read-out: IC50 with CBD
[9] = without CBD, read-out: IC50 without CBD
[10] = HepG2, read-out: IC50 without CBD

NC(=O)c1ccc2nc(-c3ccc(Oc4ccc(Cl)cc4)cc3)[nH]c2c1 [BML-277]
effect on levels of apoptotic proteins (apoptotic proteins): reduced | effect on the apoptotic effect of combined treatment (HepG2 cells [1]): inhibited the apoptotic effect | effect on phosphorylation of p53 (p53 [2]): reduced the phosphorylation of p53

C=C(C)[C@@H]1CCC(C)=C[C@H]1c1c(O)cc(CCCCC)c(C(=O)O)c1O [CBDA, cannabidiolic acid]
IC50 (HepG2 cells [3]; [7]): 35.9 ± 1.35 µM

COc1cc2nccc(Oc3ccc(NC(=O)C4(C(=O)Nc5ccc(F)cc5)CC4)cc3)c2cc1OC [Cabozantinib]
IC50 (HepG2 cells [4]; [8]): 15.8 µM | IC50 (HepG2 cells [4]; [9]): > 100 µM | toxicity of cabozantinib against HepG2 cells when combine treated with cannabidiol (HepG2 cells [4]; vs cabozantinib alone, 20 μM CBD, 48 h, FIG. 4A): significantly increased | inhibition of tyrosine kinase c-Met (tyrosine kinase c-Met): inhibit tyrosine kinase c-Met and VEGFR2 | inhibition of VEGFR2 (VEGFR2): inhibit tyrosine kinase c-Met and VEGFR2 | IC50 (pCDH-CNR1 HepG2 cells; HepG2, read-out: IC50 with CBD): 20.2 µM | IC50 (pCDH-CNR1 HepG2 cells; [10]): > 100 µM | IC50 (pCDH-Ctrl HepG2 cells; HepG2, read-out: IC50 with CBD): 16 µM | IC50 (pCDH-Ctrl HepG2 cells; [10]): > 100 µM | IC50 (pCDH-CNR2 HepG2 cells; HepG2, read-out: IC50 with CBD): 18.2 µM | IC50 (pCDH-CNR2 HepG2 cells; [10]): > 100 µM

O=C1O[C@H]([C@@H](O)CO)C(O)=C1O [LAA, L-ascorbic acid]
effect on apoptosis caused by ER stress (HepG2 cells [5]): suppressed | effect on p53 activation caused by ER stress (p53 [6]): suppressed

COc1cc2nccc(Oc3ccc(NC(=O)NC4CC4)c(Cl)c3)c2cc1C(N)=O [Lenvatinib]
IC50 (HepG2 cells [4]; [8]): > 100 µM | IC50 (HepG2 cells [4]; [9]): > 100 µM

CNC(=O)c1cc(Oc2ccc(NC(=O)Nc3ccc(Cl)c(C(F)(F)F)c3)c(F)c2)ccn1 [Regorafenib]
IC50 (HepG2 cells [4]; [8]): 9.74 µM | IC50 (HepG2 cells [4]; [9]): 14.1 µM

CNC(=O)c1cc(Oc2ccc(NC(=O)Nc3ccc(Cl)c(C(F)(F)F)c3)cc2)ccn1 [Sorafenib]
IC50 (HepG2 cells [4]; [8]): 9.24 µM | IC50 (HepG2 cells [4]; [9]): 14.6 µM

CCCCCc1cc(O)c2c(c1)OC(C)(C)[C@@H]1CCC(C)=C[C@@H]21 [THC, tetrahydrocannabinol]
IC50 (HepG2 cells [3]; HepG2, 48 h): 23.9 ± 0.55 µM

CCCCCc1cc2c(c(O)c1C(=O)O)[C@@H]1C=C(C)CC[C@H]1C(C)(C)O2 [THCA]
IC50 (HepG2 cells [3]; [7]): 30.4 ± 0.85 µM

From patent US20260335340A1, “PHARMACEUTICAL COMPOSITION FOR TREATING LIVER CANCER COMPRISING CANNABIDIOL AND ANTICANCER AGENT AS ACTIVE INGREDIENTS AND USE THEREOF” (NEOCANNBIO CO., LTD., priority 2022, published 2026)
